Common to all, as to experiment: pTyr-Var library bacterial peptide display kinase screen (enrichment scores)
The target in experiment [1] is c-Src kinase domain (Homo sapiens, UniProt P12931). The experiment is classed as biochemical. The conditions noted are these: sheet "Src".
The target of experiment [2] is T1, c-Abl kinase domain (Mus musculus, UniProt P00520).
T1 sequence (P00520 242-493 limits assumed): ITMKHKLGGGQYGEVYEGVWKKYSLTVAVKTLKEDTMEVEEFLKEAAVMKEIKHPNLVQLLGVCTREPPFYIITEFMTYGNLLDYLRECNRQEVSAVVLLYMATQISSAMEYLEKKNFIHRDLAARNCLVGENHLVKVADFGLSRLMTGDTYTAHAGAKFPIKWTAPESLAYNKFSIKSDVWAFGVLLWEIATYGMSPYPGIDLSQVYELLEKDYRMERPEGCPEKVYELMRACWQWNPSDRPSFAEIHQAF
Type of experiment: biochemical.

Experiment [3] deals with EPHB2 kinase domain. Type of experiment: biochemical, human. The conditions noted are these: sheet EPHB2.
Experiment [4] concerns Fer kinase domain. The experiment is classed as biochemical, mouse. The conditions noted are these: sheet "Fer".
The mark [5] stands for this setting: effect of the variant peptide relative to its reference peptide in the pTyr-Var library screen.
[6] abbreviates: sheet "Abl", effect of variant peptide relative to its reference peptide in pTyr-Var library screen (enrichment).
[7] abbreviates: variant peptide versus its reference peptide in the pTyr-Var library screen.
Where [8] appears, read: effect of variant peptide relative to its reference peptide in the pTyr-Var library screen (enrichment scores).
The mark [9] stands for this setting: value of the variant peptide against its reference peptide in the pTyr-Var library screen with Fer.
Where [10] appears, read: fig5-data2, sheet "Abl", Screen for the variant/reference peptide pair, pTyr-Var library.
The mark [11] stands for this setting: variant peptide relative to its reference peptide, pTyr-Var library screen enrichment.
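Also: log2 fold change in enrichment of variant over reference.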

With GESLTYVSTTF [C1orf162_Y120_A121V], the Screen in experiment [1] (setting [5]) is on record as -2.006. Sequence WAMPAYNRSKL [WWOX_Y293_L291P] had a Screen in experiment [2] (setting [6]) of 4.174. On to RQNNSYTCFTA [SLC20A2_Y386_R382Q_YF], for which the figures for the Screen in experiment [1] (setting [7]) and in experiment [3] (setting [8]) were -1.243 and -1.481, respectively. Regarding SVETPYVSVTF [NDRG2_Y47_G48V], the figures for the Screen in experiment [1] (setting [7]) and in experiment [4] (setting [9]) were -1.163 and -1.711, respectively. In turn, VRHRHYKHTHE [CTCF_Y343_R342H] came in with a Screen in experiment [2] (setting [10]) of -0.4723. The sequence SVTCTYPPALN [TP53_Y126_S127P] came in with a Screen in experiment [2] (setting [6]) of 1.141. For QMVDMYASSFM [AVPR2_Y124_G122D_YF], the Screen in experiment [1] (setting [5]) is reported as 0.5236. In experiment [2] (setting [10]), TEALFYTDDPA [ADPRS_Y75_T79P_YF] came in with a Screen of 1.901.

Consider IVRSLYEDVED [VHL_Y185_L188V], for which the Screen in experiment [2] (setting [6]) worked out at 2.296; in experiment [4] (setting [11]), 0.543. NCLRVYVAGRF [CRB1_Y711_E710V] gave a Screen in experiment [2] (setting [10]) of -0.2235. For LNPLIYTLRNA [OR4C46_Y285_K288R], the Screen in experiment [1] (setting [7]) stood at 1.167. Consider PLDGEYSTLQI [TP53_Y327_F328S], for which the Screen in experiment [1] (setting [7]) is listed as -0.3767; in experiment [4] (setting [11]), 1.6. In experiment [2] (setting [10]), PVFEVYPLLNC [GATA1_Y78_Q76E] registered a Screen of 0.8954. VIVRMYDFHVL [RPF2_Y109_G106V_YF]: the Screen is listed as 1.263 in experiment [3] (setting [8]) and -0.9951 in experiment [4] (setting [11]).

As to QQIFTYDSGIH [JUP_Y22_T19I_YF], the Screen in experiment [2] (setting [10]) is reported as 1.325. Regarding CKSIHYDLVFL [COL22A1_Y37_V35I], the Screen in experiment [4] (setting [9]) is recorded as -0.07246. Turning to VEEDTYTMPST [PTK2_Y407_D402V], in experiment [1] (setting [7]), the Screen stood at 0.7074.

Turning to ACEVLYNIVFM [NCF2_Y125_A128V], the Screen is reported as 0.004351 in experiment [1] (setting [7]) and 0.5953 in experiment [4] (setting [9]).

As to EAAFVYVISSA [WNT4_Y113_A114V], the Screen in experiment [1] (setting [7]) is on record as -2.147; in experiment [2] (setting [6]), 1.673. IGMLIYFARKA [VCAM1_Y718_I716L] yielded a Screen in experiment [3] (effect of the variant relative to its reference peptide in the pTyr-Var library screen) of -1.317.

Sequence NHFKRYNLCAE [PTEN_Y68_I67R_YF] displayed a Screen in experiment [1] (setting [7]) of -2.549. Consider FDNPIYQKTTE [LDLR_Y828_V827I], for which the figures for the Screen in experiment [2] (setting [10]) and in experiment [4] (setting [9]) were 2.749 and 1.939, respectively. Regarding FSGQVYRQRRK [TH_Y230_D227G], in experiment [2] (setting [6]), the Screen stood at 0.751. In turn, VNFDFYTVNLG [GFPT1_Y367_D366Y_YF] registered a Screen in experiment [1] (setting [5]) of 0.9419. In experiment [1] (setting [7]), DGQFVYKLTDF [TBK1_Y153_S151F] registered a Screen of -0.3973.

PFQGAYLKINK [MYO1B_Y967_E969K] showed a Screen in experiment [2] (setting [10]) of 1.339. With FLAVGYHMPHI [IDS_Y225_K227M], the Screen in experiment [2] (setting [10]) was -0.568. Turning to VPHECYAKVFD [ALB_Y394_D389V], the Screen in experiment [2] (setting [10]) stood at 0.9527. Still for that read-out and setting: the same measure for LSCLAYSGKDA [FXN_Y205_S202C]: -1.545. Turning to FLENFYDLEKD [MMP3_Y42_K45E_YF], the Screen in experiment [1] (setting [5]) worked out at 0.2474.

Sequence GQDLLYEDEDL [PACS1_Y303_F302L] gave a Screen in experiment [4] (setting [9]) of 0.4548.

On to GMKIVYVFVKK [DNAI2_Y5_E2K_YF], for which, in experiment [2] (setting [10]), the Screen was determined as 1.393.

In the case of FFLGAYDRFLP [SLC22A5_Y486_V481F_YF], the Screen is reported as -0.1466 in experiment [1] (setting [7]), -0.4331 in experiment [3] (setting [8]) and -0.3891 in experiment [2] (setting [6]).

TDGIAYEFRVT [TTN_Y22256_I22261T]: the Screen in experiment [2] (setting [6]) is -3.408. Sequence GGSDCYGSLRP [MYLK_Y846_R845C] yielded a Screen in experiment [1] (setting [7]) of 2.609.

In turn, DFFDLYGGKKF [PTPN11_Y66_E69K_YF] yielded a Screen in experiment [1] (setting [7]) of 0.3147. As to LDFPEYNGVDR [CASQ1_Y43_D44N], the Screen in experiment [1] (setting [5]) is 0.514. Consider REGDKYVSHGA [ASS1_Y113_A111D], for which the Screen in experiment [2] (setting [10]) was found to be 0.7285. For FISLIYTNFEV [GSTP1_Y109_A114V_YF], the Screen in experiment [1] (setting [5]) was found to be 0.2277; in experiment [2] (setting [10]), 1.388; in experiment [4] (setting [9]), 1.457. In turn, GEEIKYMLWLL [OTC_Y55_S60L] displayed a Screen in experiment [4] (setting [9]) of 1.219. Consider HNQDDYSFPSR [LDLR_Y845_G844D_YF], for which the Screen in experiment [3] (setting [8]) amounted to 1.141. As to PLDGEYVTLQI [TP53_Y327_F328V], the results for the Screen in experiment [1] (setting [7]) and in experiment [2] (setting [6]) were -2.053 and -0.6513, respectively.

As to AEDKPYAELWT [MPI_Y46_M51T], the Screen in experiment [1] (setting [5]) is recorded as -0.4439; in experiment [4] (setting [9]) it was -0.5845. Sequence LWKWRYEELKE [CCDC102B_Y299_K298R] displayed a Screen in experiment [2] (setting [10]) of 0.5114. WKEREYEVVRD [CPS1_Y634_I632R] showed a Screen in experiment [3] (setting [8]) of 0.9502.

For CENCHYPILPL [LCK_Y25_V28L], the Screen in experiment [2] (setting [10]) stood at 0.2762.

Values taken from paper PMC10065799, “High-throughput profiling of sequence recognition by tyrosine kinases and SH2 domains using bacterial peptide display” (eLife, 2023).
